In BindingDB's records for doi:10.1021/jm9802158 (Upjohn, 1998) one finds Ki data, which are given here for 20 compounds.

The structures appear in SMILES notation.

The target in one assay is T1, Dimer of Gag-Pol polyprotein [489-587] (Human immunodeficiency virus 1, UniProt P12497).
T1 construct: 489-587
Description: Protease Inhibition Assay. The following applies: pH 5; 22 °C. The text has this: (§1) HIV-1 protease was purified and refolded from E. coli inclusion bodies. The substrate used spans the p17-p24 processing site (R-V-S-Q-N-Y-P-I-V-Q-N-K) and was derivatized with biotin and fluorescein isothiocyanate (FITC) at the amino and carboxy termini. In the presence of HIV-l protease, the substrate is rapidly cleaved into two parts. The biotinylated amino terminal fragment binds to the avidin beads while the FITC-containing carboxy1 terminal fragment is removed through the membrane. […] The bound fluorescence is obtained by processing on an IDEXX Screen Machine. Determination of Ki values with this assay requires analysis under conditions in which substrate concentration resides substantially below Km and the inhibitor concentrations greatly exceeds the Ki value and the enzyme concentration.
What is called Ki is a measure of affinity in units of concentration, obtained from inhibition or displacement. Lower therefore signals tighter binding. With `CCC(c1cccc(NS(=O)(=O)c2cn(C)cn2)c1)C1C(=O)CC(CCc2ccccc2)(CCc2ccccc2)OC1=O` (stereo not given) [N-(3-{1-[4-hydroxy-2-oxo-6,6-bis(2-phenylethyl)-5,6-dihydro-2H-pyran-3-yl]propyl}phenyl)-1-methyl-1H-imidazole-4-sulfonamide], affinity was put at a Ki of 1 nM.
In turn, `CCCC1(CCC)CC(=O)C(C(c2cccc(NS(=O)(=O)c3cn(C)cn3)c2)C2CC2)C(=O)O1` (stereo not given) [N-[3-[1-(5,6-Dihydro-4-hydroxy-2-oxo-6,6-dipropyl-2H-pyran-3-yl)cyclopropylmethyl]phenyl]-1-methyl-1H-imidazolesulfonamide] registered a Ki of 0.52 nM.
On to `CCCC1(CCc2ccc(F)cc2)CC(=O)C(C(CC)c2cccc(NS(=O)(=O)c3cn(C)cn3)c2)C(=O)O1` (stereo not given) [N-[3-{1-(5,6-Dihydro-4-hydroxy-2-oxo--6-(2-(4-fluorophenyl)ethyl)-6-propyl-2H-pyran-3-yl)propyl}phenyl]-1-methyl-1H-imidazole-4-sulfonamide], for which the Ki was found to be 3 nM.
On the same count and under the same terms, then `CCCC1(CCc2ccccc2)CC(=O)C(C(c2cccc(NS(=O)(=O)c3ccc([N+](=O)[O-])cn3)c2)C(C)(C)C)C(=O)O1` (stereo not given) [N-(3-{1-[4-hydroxy-2-oxo-6-(2-phenylethyl)-6-propyl-5,6-dihydro-2H-pyran-3-yl]-2,2-dimethylpropyl}phenyl)-5-nitropyridine-2-sulfonamide], with 2.3 nM.
Regarding `CCC(c1cccc(NS(=O)(=O)c2cn(C)cn2)c1)C1C(=O)CC(CCC2CC2)(CCC2CC2)OC1=O` (stereo not given) [N-(3-{1-[6,6-bis(2-cyclopropylethyl)-4-hydroxy-2-oxo-5,6-dihydro-2H-pyran-3-yl]propyl}phenyl)-1-methyl-1H-imidazole-4-sulfonamide], the Ki worked out at 1.7 nM.
As to `CCCC1(CCc2ccccc2)CC(=O)C(C(c2cccc(NS(=O)(=O)c3cn(C)cn3)c2)C2CC2)C(=O)O1` (stereo not given) [N-[3-[1-(5,6-Dihydro-4-hydroxy-2-oxo-6-phenethyl-6-propyl-2H-pyran-3-yl)cyclopropylmethyl]phenyl]-1-methyl-1H-imidazole-4-sulfonamide], the inhibition constant (Ki) came out at 0.71 nM.
The same measure, in the same setting: the same measure for `CCCC1(CCc2ccccc2)CC(=O)C(Cc2cccc(NS(=O)(=O)c3cn(C)cn3)c2)C(=O)O1` (stereo not given) [N-(3-[1-(5,6-Dihydro-4-hydroxy-2-oxo-6-phenethyl-6-propyl-2H-pyran-3-yl)methyl]phenyl)-1-methyl-1H-imidazole-4-sulfonamide]: 13 nM; for `CCC(c1cccc(NS(=O)(=O)c2cn(C)cn2)c1)C1C(=O)CC(COCCOCCOC)(COCCOCCOC)OC1=O` (stereo not given) [N-[3-{1-(5,6-Dihydro-4-hydroxy-2-oxo--6,6-bis((2-(2-methoxyethoxy)ethoxy)methyl)-2H-pyran-3-yl)propyl}phenyl]-1-methyl-1H-imidazole-4-sulfonamide]: 28 nM.
Consider `CCCC1(CCc2ccccc2)CC(=O)C(C(CC)c2cccc(NS(=O)(=O)c3ccc(C#N)cc3)c2)C(=O)O1` (stereo not given) [4-cyano-N-(3-{1-[4-hydroxy-2-oxo-6-(2-phenylethyl)-6-propyl-5,6-dihydro-2H-pyran-3-yl]propyl}phenyl)benzene-1-sulfonamide], for which affinity was put at a Ki of 8.2 nM.
As to `CCCC1(CCC)CC(=O)C(C(CC)c2cccc(NS(=O)(=O)c3cn(C)cn3)c2)C(=O)O1` (stereo not given) [N-[3-[1-(5,6-Dihydro-4-hydroxy-2-oxo-6,6-dipropyl-2H-pyran-3-yl)propyl]phenyl]-1-methyl-1H-imidazolesulfonamide], the Ki was found to be 1.8 nM.
Turning to `CCCC1(CCc2ccccc2)CC(=O)C(C(c2cccc(NS(=O)(=O)c3ccc(C#N)cc3)c2)C(C)(C)C)C(=O)O1` (stereo not given) [4-cyano-N-(3-{1-[4-hydroxy-2-oxo-6-(2-phenylethyl)-6-propyl-5,6-dihydro-2H-pyran-3-yl]-2,2-dimethylpropyl}phenyl)benzene-1-sulfonamide], the Ki was found to be 12 nM.
As to `CCC(c1cccc(NS(=O)(=O)c2cn(C)cn2)c1)C1C(=O)CC2(OC1=O)C1CC3CC(C1)CC2C3` (stereo not given) [N-[3-(1-{4'-hydroxy-3',6'-dihydrospiro[adamantane-2,2'-pyran]-6'-one}propyl)phenyl]-1-methyl-1H-imidazole-4-sulfonamide], the Ki amounted to 23 nM.
`CCCC1(CCc2ccccc2)CC(=O)C(C(c2cccc(NS(=O)(=O)c3ccc(C#N)cn3)c2)C(C)(C)C)C(=O)O1` (stereo not given) [N-(3-[1-(5,6-Dihydro-4-hydroxy-2-oxo-6-phenethyl-6-propyl-2H-pyran-3-yl)-2,2-dimethylpropyl]phenyl)-5-cycano-2-pyridinesulfonamide] came in with a Ki of 1.9 nM.
On to `CCCC1(CCc2ccccc2)CC(=O)C(C(c2cccc(NS(=O)(=O)c3cn(C)cn3)c2)C(C)(C)C)C(=O)O1` (stereo not given) [N-[3-{1-(5,6-Dihydro-4-hydroxy-2-oxo-6-phenethyl-6-propyl-2H-pyran-3-yl)-2,2-dimethylpropyl)phenyl]-1-methyl-1H-imidazole-4-sulfonamide], for which the affinity corresponds to a Ki of 1.2 nM.
In turn, `CCCC1(CCc2ccccc2)CC(=O)C(C(c2cccc(NS(=O)(=O)c3ccc(C(F)(F)F)cn3)c2)C(C)(C)C)C(=O)O1` (stereo not given) [N-(3-[1-(5,6-Dihydro-4-hydroxy-2-oxo-6-phenethyl-6-propyl-2H-pyran-3-yl)-2,2-dimethylpropyl]phenyl)-5-trifluoromethyl-2-pyridinesulfonamide] showed a Ki of 4.3 nM.
On the same count and under the same terms, the same measure for `CCC(c1cccc(NS(=O)(=O)c2cn(C)cn2)c1)C1C(=O)CC(CC(C)C)(CC(C)C)OC1=O` (stereo not given) [N-(3-{1-[4-hydroxy-6,6-bis(2-methylpropyl)-2-oxo-5,6-dihydro-2H-pyran-3-yl]propyl}phenyl)-1-methyl-1H-imidazole-4-sulfonamide]: 3 nM.
`CCCC1(CCc2ccccc2)CC(=O)C(C(CC)c2cccc(NS(=O)(=O)CCC)c2)C(=O)O1` (stereo not given) [N-(3-{1-[4-hydroxy-2-oxo-6-(2-phenylethyl)-6-propyl-5,6-dihydro-2H-pyran-3-yl]propyl}phenyl)propane-1-sulfonamide]: the Ki is > 1000 nM.
`CCCC1(CCC)CC(=O)C(C(c2cccc(NS(=O)(=O)c3cn(C)cn3)c2)C(C)(C)C)C(=O)O1` (stereo not given) [N-[3-{1-(5,6-Dihydro-4-hydroxy-2-oxo-6,6-dipropyl-2H-pyran-3-yl)-2,2-dimethylpropyl)phenyl]-1-methyl-1H-imidazole-4-sulfonamide] registered a Ki of 0.87 nM.

Another assay addresses T2, Dimer of Gag-Pol polyprotein [489-587] (Human immunodeficiency virus 1, UniProt P04585).
T2 construct: 489-587
Put plainly: Protease Inhibition Assay. The following applies: pH 5; 22 °C.
From the text: as §1
`CCCC1(CCc2ccccc2)CC(=O)C(C(c2cccc(NS(=O)(=O)c3ccc(N)cn3)c2)C(C)(C)C)C(=O)O1` (stereo not given) [5-amino-N-(3-{1-[4-hydroxy-2-oxo-6-(2-phenylethyl)-6-propyl-5,6-dihydro-2H-pyran-3-yl]-2,2-dimethylpropyl}phenyl)pyridine-2-sulfonamide] showed a Ki of 0.2 nM.
On the same count and under the same terms, then `CCCC1(CCc2ccccc2)CC(=O)C(C(CC)c2cccc(NS(=O)(=O)c3ccc(C#N)cn3)c2)C(=O)O1` (stereo not given) [5-cyano-N-(3-{1-[4-hydroxy-2-oxo-6-(2-phenylethyl)-6-propyl-5,6-dihydro-2H-pyran-3-yl]propyl}phenyl)pyridine-2-sulfonamide], with 0.1 nM.
